Measurements as given in PubChem BioAssay (NCI).
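Assay format: 96-well plates, 48-hour exposure. GI50 = concentration required for 50% inhibition of growth. TGI: concentration producing complete growth inhibition.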

Assays:
Test in all cases: NCI anticancer screen, dose series, 48 h
NCI-H23 lung = tested on: NCI-H23 lung
KM12 colon = tested on: KM12 colon
OVCAR-4 ovarian = tested on: OVCAR-4 ovarian
NCI-H460 lung = tested on: NCI-H460 lung
RPMI-8226 leukemia = tested on: RPMI-8226 leukemia
OVCAR-5 ovarian = tested on: OVCAR-5 ovarian
UACC-62 melanoma = tested on: UACC-62 melanoma
A498 renal = tested on: A498 renal
A549 NSCLC = tested on: A549 NSCLC
MCF7 breast = tested on: MCF7 breast

| SMILES | TGI (NCI-H23 lung) [µM] | TGI (KM12 colon) [µM] | TGI (OVCAR-4 ovarian) [µM] | TGI (NCI-H460 lung) [µM] | TGI (RPMI-8226 leukemia) [µM] | TGI (OVCAR-5 ovarian) [µM] | TGI (UACC-62 melanoma) [µM] | TGI (A498 renal) [µM] | TGI (A549 NSCLC) [µM] | TGI (MCF7 breast) [µM] | GI50 (KM12 colon) [µM] | GI50 (MCF7 breast) [µM] | GI50 (OVCAR-4 ovarian) [µM] | GI50 (NCI-H460 lung) [µM] | GI50 (RPMI-8226 leukemia) [µM] | GI50 (OVCAR-5 ovarian) [µM] | GI50 (UACC-62 melanoma) [µM] | GI50 (A498 renal) [µM] | GI50 (A549 NSCLC) [µM] | GI50 (NCI-H23 lung) [µM] |
| --- | --- | --- | --- | --- | --- | --- | --- | --- | --- | --- | --- | --- | --- | --- | --- | --- | --- | --- | --- | --- |
| CN(/N=C/c1cccc2cccnc12)c1ccccc1 | > 100 | > 100 | > 100 | > 100 | > 100 | > 100 | > 100 | > 100 | > 100 | – | – | – | – | – | – | – | – | – | – | – |
| C/C=C(/COC(C)=O)C(=O)OC1C=C(C=O)C(C)(C)C=C1C (stereo not given) | > 100 | > 100 | > 100 | > 100 | – | > 100 | > 100 | > 100 | > 100 | > 100 | – | – | – | – | – | – | – | – | – | – |
| COc1ccc(OC)c(-c2c(C#N)c(N)nc(N3CCOCC3)c2C#N)c1 | – | > 100 | > 100 | > 100 | > 100 | > 100 | > 100 | > 100 | > 100 | > 100 | > 100 | > 100 | 43.6 | > 100 | > 100 | > 100 | 44.5 | 52.6 | > 100 | – |
| COc1ccc(C(C#N)Cc2cc(OC)c(OC)c(OC)c2)cc1 (stereo not given) | – | > 100 | > 100 | > 100 | > 100 | > 100 | > 100 | 73.1 | > 100 | – | – | – | – | – | – | – | – | – | – | – |
| N#CC(c1nc2ccccc2nc1Cl)S(=O)(=O)c1ccccc1 (stereo not given) | > 100 | > 100 | > 100 | > 100 | > 100 | > 100 | > 100 | > 100 | > 100 | – | – | – | – | – | – | – | – | – | – | – |
| Cc1[nH]c2ccccc2c1C1Cc2ccccc2N1C(=O)/C=C/C(=O)O (stereo not given) | > 100 | > 100 | > 100 | 61.3 | – | > 100 | > 100 | > 100 | > 100 | – | – | – | – | – | – | – | – | – | – | – |
| CN1c2ccccc2N(C)C23N(C)c4ccccc4N(C)C12N(C)c1ccccc1N3C (stereo not given) | > 100 | > 100 | – | > 100 | – | > 100 | > 100 | > 100 | > 100 | – | – | – | – | – | – | – | – | – | – | – |
| CCOC(=O)NC(=O)c1cn(CCN2CCN(c3ncnc4nc[nH]c34)CC2)c(=O)[nH]c1=O | > 100 | > 100 | – | > 100 | > 100 | > 100 | > 100 | > 100 | > 100 | – | – | – | – | – | – | – | – | – | – | – |
| CCc1cccc(C)c1NC(=O)C(=O)Cc1nc2ccccc2s1 | > 100 | > 100 | > 100 | > 100 | – | – | > 100 | > 100 | > 100 | – | – | – | – | – | – | – | – | – | – | – |
| COC(=O)c1cc(Cl)ccc1NC(=O)c1ccc([N+](=O)[O-])cc1 | 50.3 | 51.7 | 12.3 | > 100 | 69.4 | > 100 | 66.5 | 34.5 | 58.2 | – | – | – | – | – | – | – | – | – | – | – |
| CCCOC(=O)N1CCN(/[N+]([O-])=N/Oc2ccc([N+](=O)[O-])cc2[N+](=O)[O-])CC1 | 5.34 | 5.66 | – | 8.82 | 2.41 | 12.7 | 5.59 | – | 22.4 | 2.23 | 2.01 | 0.446 | – | 2.54 | 0.49 | 3.43 | 2.26 | – | 3.85 | 2.25 |
| Cc1ccccc1NC(=O)C(=O)CC(=O)c1c(C)n([O-])c2ccccc2[n+]1=O | > 100 | > 100 | > 100 | > 100 | > 100 | > 100 | > 100 | > 100 | > 100 | – | – | – | – | – | – | – | – | – | – | – |
| O=C1CC(S(=O)(=O)O)C=C1Nc1cccc(Cl)c1 (stereo not given) | > 100 | > 100 | > 100 | > 100 | – | > 100 | > 100 | > 100 | > 100 | – | – | – | – | – | – | – | – | – | – | – |
| COc1ccc(/C=N/N=C(\N)NO)c(OC)c1 | > 100 | > 100 | > 100 | – | > 100 | 36.1 | > 100 | – | > 100 | – | – | – | – | – | – | – | – | – | – | – |
| COc1ccc(OC)c2c1C(=O)C1CC1(Br)C2=O (stereo not given) | > 100 | > 100 | > 100 | > 100 | > 100 | > 100 | > 100 | > 100 | > 100 | – | – | – | – | – | – | – | – | – | – | – |
| O=CN/C=C/c1ccc(O)c(O)c1 | > 100 | > 100 | > 100 | > 100 | > 100 | > 100 | > 100 | > 100 | > 100 | – | – | – | – | – | – | – | – | – | – | – |
| C1=C2/CC[C@H](Sc3ccccc3)[C@H]2C2(CCCCC/1)OCCO2 | > 100 | > 100 | – | > 100 | 83.1 | 79.6 | 62.4 | – | > 100 | – | – | – | – | – | – | – | – | – | – | – |
| Cc1ccc(N2C(=O)C3C=CC(n4[nH]c(=O)n(Cc5ccccc5)c4=O)CC3C2=O)cc1 (stereo not given) | > 100 | > 100 | – | > 100 | > 100 | > 100 | > 100 | > 100 | > 100 | – | – | – | – | – | – | – | – | – | – | – |
| O=CC1CCCc2ccccc21 (stereo not given) | > 100 | > 100 | > 100 | > 100 | > 65.8 | > 100 | > 100 | > 100 | > 100 | – | – | – | – | – | – | – | – | – | – | – |
| CCOC(=O)C(=Cc1cccnc1C)C(=O)OCC | 18.4 | 12.9 | 27.4 | 35.8 | – | 31.8 | 20.1 | 31 | 51.3 | – | – | – | – | – | – | – | – | – | – | – |
| Cc1cccc(C(C)C)c1NC(=O)CC1C(=O)Nc2ccccc2S1(=O)=O (stereo not given) | 31.3 | 73.9 | 29 | 35.2 | 23 | > 73.1 | > 51.1 | > 54.2 | 39.3 | – | – | – | – | – | – | – | – | – | – | – |
| O=c1c2ccccc2nc(-c2ccccc2)n1NC1OC(CO)C(O)C(O)C1O (stereo not given) | > 100 | > 100 | > 100 | > 100 | > 100 | > 100 | > 100 | > 100 | > 100 | – | – | – | – | – | – | – | – | – | – | – |
